Assays:
dopamine D5 receptor = dopamine D5 receptor (Homo sapiens, UniProt P21918); assay: Displacement of [3H]-SCH23390 from recombinant human D5 receptor transiently expressed in HEKT cell membranes at 10 uM measured after 90 mins by microbeta scintillation counting method relative to control; details: probe [3H]-SCH23390
[1] = biological target: T1, Alpha-1B adrenergic receptor (Homo sapiens, UniProt P35368); assay: Displacement of [3H]-prazosin from recombinant human alpha1B adrenergic receptor transiently expressed in HEKT cell membranes measured after 90 mins by microbeta scintillation counting method
T1 sequence (P35368 whole entry): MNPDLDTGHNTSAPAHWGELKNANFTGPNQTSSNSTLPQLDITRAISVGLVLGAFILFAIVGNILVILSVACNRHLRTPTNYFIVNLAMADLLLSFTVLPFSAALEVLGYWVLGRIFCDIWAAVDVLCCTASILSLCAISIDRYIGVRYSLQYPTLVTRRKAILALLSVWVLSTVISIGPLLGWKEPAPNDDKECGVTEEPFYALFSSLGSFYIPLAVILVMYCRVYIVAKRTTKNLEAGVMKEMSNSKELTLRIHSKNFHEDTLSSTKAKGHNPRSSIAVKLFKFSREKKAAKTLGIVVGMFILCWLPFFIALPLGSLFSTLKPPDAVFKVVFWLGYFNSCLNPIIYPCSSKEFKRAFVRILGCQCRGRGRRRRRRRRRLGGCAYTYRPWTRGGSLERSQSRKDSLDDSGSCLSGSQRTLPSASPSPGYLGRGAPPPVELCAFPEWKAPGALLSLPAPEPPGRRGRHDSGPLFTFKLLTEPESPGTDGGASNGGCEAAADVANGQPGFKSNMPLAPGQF

dopamine D2 receptor = dopamine D2 receptor (Homo sapiens, UniProt P14416); assay: Displacement of [3H]-N-methylspiperone from recombinant human D2 receptor stably expressed in fibroblast cell membranes at 10 uM measured after 90 mins by microbeta scintillation counting method relative to control; details: probe [3H]-N-methylspiperone
[2] = biological target: T2, Alpha-1A adrenergic receptor (Homo sapiens, UniProt P35348); assay: Displacement of [3H]-prazosin from recombinant human alpha1A adrenergic receptor at 10 uM measured after 90 mins by microbeta scintillation counting method relative to control; details: probe [3H]-prazosin
T2 sequence (P35348 whole entry): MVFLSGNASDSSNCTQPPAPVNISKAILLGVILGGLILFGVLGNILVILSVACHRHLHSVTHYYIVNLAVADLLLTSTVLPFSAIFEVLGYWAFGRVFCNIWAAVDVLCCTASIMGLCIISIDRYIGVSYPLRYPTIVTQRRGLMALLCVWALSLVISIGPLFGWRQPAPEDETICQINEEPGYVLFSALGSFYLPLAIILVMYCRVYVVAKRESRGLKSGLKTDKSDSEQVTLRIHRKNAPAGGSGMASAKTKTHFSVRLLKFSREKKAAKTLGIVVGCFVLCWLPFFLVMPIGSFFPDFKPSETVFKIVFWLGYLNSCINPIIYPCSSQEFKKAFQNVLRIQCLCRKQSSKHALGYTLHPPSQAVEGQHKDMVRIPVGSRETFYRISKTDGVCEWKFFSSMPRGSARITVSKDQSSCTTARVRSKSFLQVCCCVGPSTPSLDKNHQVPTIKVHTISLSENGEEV

[3] = biological target: Alpha-2A adrenergic receptor (Homo sapiens, UniProt P08913); assay: Displacement of [3H]-rauwolscine from recombinant human alpha2A adrenergic receptor stably expressed in MDCK cell membranes at 10 uM measured after 90 mins by microbeta scintillation counting method relative to control; details: probe [3H]-rauwolscine
5HT7A receptor = 5HT7A receptor (Homo sapiens, UniProt P34969); assay: Displacement of [3H]-LSD from recombinant human 5HT7A receptor stably expressed in HEK cell membranes at 10 uM measured after 90 mins by microbeta scintillation counting method relative to control; details: probe [3H]-LSD
5HT1A receptor = 5HT1A receptor (Homo sapiens, UniProt P08908); assay: Displacement of [3H]-Way100635 from recombinant human 5HT1A receptor stably expressed in CHO cell membranes at 10 uM measured after 90 mins by microbeta scintillation counting method relative to control; details: probe [3H]-Way100635
5HT1B receptor = 5HT1B receptor (Homo sapiens, UniProt P28222); assay: Displacement of [3H]5-CT from recombinant human 5HT1B receptor stably expressed in HEK cell membranes at 10 uM measured after 90 mins by microbeta scintillation counting method relative to control; details: probe [3H]5-CT
Histamine H1 receptor = Histamine H1 receptor (Homo sapiens, UniProt P35367); assay: Displacement of [3H]-pyrilamine from human histamine H1 receptor expressed in stable HEK cell membranes after 90 mins by microbeta scintillation counting method
Histamine H2 receptor = Histamine H2 receptor (Homo sapiens, UniProt P25021); assay: Displacement of [125I]-Iodo-aminopotentidine from human histamine H2 receptor expressed in stable HEK cell membranes after 90 mins by microbeta scintillation counting method
5HT1E receptor = 5HT1E receptor (Homo sapiens, UniProt P28566); assay: Displacement of [3H]5-HT from recombinant human 5HT1E receptor stably expressed in HEK cell membranes at 10 uM measured after 90 mins by microbeta scintillation counting method relative to control; details: probe [3H]5-HT
[4] = biological target: serotonin transporter (SERT) (Homo sapiens, UniProt P31645); assay: Displacement of [3H]-citalopram from human SERT receptor expressed in stable HEK cell membranes at 10 uM after 90 mins by microbeta scintillation counting method relative to control; details: stable HEK cell membranes expressing human SERT, probe [3H]-citalopram
[5] = biological target: Sodium-dependent serotonin transporter (Homo sapiens, UniProt P31645); assay: Displacement of [3H]-citalopram from human SERT receptor expressed in stable HEK cell membranes after 90 mins by microbeta scintillation counting method
[6] = biological target: Muscarinic acetylcholine receptor M5 (Homo sapiens, UniProt P08912); assay: Displacement of [3H]-QNB/[3H]-NMS from human muscarinic M5 receptor expressed in stable CHO cell membranes after 90 mins by microbeta scintillation counting method
Histamine H3 receptor = Histamine H3 receptor (Homo sapiens, UniProt Q9Y5N1); assay: Displacement of [3H]-alpha-methylhistamine from recombinant human histamine H3 receptor expressed in HEK Flp-In cell membranes measured after 90 mins by microbeta scintillation counting method
Histamine H4 receptor = Histamine H4 receptor (Homo sapiens, UniProt Q9H3N8); assay: Displacement of [3H]-Histamine from recombinant human histamine H4 receptor expressed in HEKT cell membranes at 10 uM measured after 90 mins by microbeta scintillation counting method relative to control; details: probe [3H]-Histamine
muscarinic M1 receptor = muscarinic M1 receptor (Homo sapiens, UniProt P11229); assay: Displacement of [3H]-QNB/[3H]-NMS from human muscarinic M1 receptor expressed in stable CHO cell membranes at 10 uM after 90 mins by microbeta scintillation counting method relative to control; details: probe [3H]-QNB/[3H]-NMS
[7] = biological target: 5-hydroxytryptamine receptor 7 (Homo sapiens, UniProt P34969); assay: Displacement of [3H]-LSD from recombinant human 5HT7A receptor stably expressed in HEK cell membranes measured after 90 mins by microbeta scintillation counting method

Compound | inhibition at […], 10 µM (dopamine D5 receptor) [%] | inhibition at […], 10 µM (dopamine D2 receptor) [%] | inhibition at […], 10 µM [2] [%] | inhibition at […], 10 µM [3] [%] | inhibition at […], 10 µM (5HT7A receptor) [%] | inhibition at […], 10 µM (5HT1A receptor) [%] | inhibition at […], 10 µM (5HT1B receptor) [%] | Ki (Histamine H2 receptor) [µM] | inhibition at […], 10 µM (5HT1E receptor) [%] | inhibition at […], 10 µM [4] [%] | inhibition at […], 10 µM (Histamine H4 receptor) [%] | inhibition at […], 10 µM (muscarinic M1 receptor) [%] | Ki [7] [µM] | other results
CCCN(CC[C@]1(O)C[C@H](NC(=O)c2ccc3ccccc3c2)C1)[C@H]1CCc2nc(N)sc2C1 | < 50 | > 50 | < 50 | < 50 | > 50 | > 50 | < 50 | 0.224 | < 50 | > 50 | < 50 | < 50 | 0.77 | Ki ([1]; read-out: Ki): 0.666 µM; Ki (Histamine H1 receptor; read-out: Ki): 0.11 µM; Ki ([5]; read-out: Ki): 0.032 µM; Ki ([6]; read-out: Ki): 2.3 µM; Ki (Histamine H3 receptor; read-out: Ki): 0.893 µM
CCCN[C@H]1CCc2nc(N)sc2C1 [PRAMIPEXOLE] | > 50 | > 50 | > 50 | > 50 | > 50 | > 50 | > 50 | 2.68 | > 50 | < 50 | > 50 | > 50 | 1.19 | Ki [1]: Not Active; Ki (Histamine H1 receptor): Not Active; Ki [5]: Not Active; Ki ([6]; cho): Not Active; Ki (Histamine H3 receptor): Not Active
